Assay results reported in the supplement of paper PMC10307832.

Tests used:
Assay in all cases: relative viability (nuclei count vs DMSO), 5 days (fraction); higher = more cells survive
[1] = compound: C1=CC2=NC=CN=C2C=C1/C=C/3\C(=O)NC(=O)S3 + CC(C)C[C@H](NC(=O)[C@H](Cc1ccccc1)NC(=O)c1cnccn1)B(O)O [Bortezomib] (partner 0.002 µM)
Method in brief: (§1)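 Relative viability divides the nuclei count in treated wells by that in vehicle wells. Lung cancer cell lines were seeded in 1536-well plates, dosed by pin tool the next day, and fixed and stained after 5 days in one step with final 0.05% Triton X-100, 1% formaldehyde and 1 ug/ml Hoechst. Dosing was a single drug or a fixed anchor-drug dose plus five library-drug doses (not always all listed) in √10 steps, and values are medians of duplicate plates imaged at 4×.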

[2] = compound: C1=CC2=NC=CN=C2C=C1/C=C/3\C(=O)NC(=O)S3 + CS(=O)(=O)CCNCc1ccc(-c2ccc3ncnc(Nc4ccc(OCc5cccc(F)c5)c(Cl)c4)c3c2)o1 [Lapatinib] (partner 2 µM)
Method in brief: as §1

[3] = compound: C1=CC2=NC=CN=C2C=C1/C=C/3\C(=O)NC(=O)S3 + Cc1cc(Nc2cc(N3CCN(C)CC3)nc(Sc3ccc(NC(=O)C4CC4)cc3)n2)n[nH]1 [Tozasertib] (partner 0.1 µM)
Method in brief: as §1

[4] = compound: C1=CC2=NC=CN=C2C=C1/C=C/3\C(=O)NC(=O)S3 + O=C(c1cc(Cc2n[nH]c(=O)c3ccccc23)ccc1F)N1CCN(C(=O)C2CC2)CC1 [Olaparib] (partner 8 µM)
Method in brief: as §1

Cell Line	relative viability ([1]; first compound 0.02 µM)	relative viability ([1]; first compound 0.06325 µM)	relative viability ([1]; first compound 0.2 µM)	relative viability ([1]; first compound 0.6325 µM)	relative viability ([1]; first compound 2 µM)	relative viability ([2]; first compound 0.02 µM)	relative viability ([2]; first compound 0.06325 µM)	relative viability ([2]; first compound 0.2 µM)	relative viability ([2]; first compound 0.6325 µM)	relative viability ([2]; first compound 2 µM)	relative viability ([3]; first compound 0.02 µM)	relative viability ([3]; first compound 0.06325 µM)	relative viability ([3]; first compound 0.2 µM)	relative viability ([3]; first compound 0.6325 µM)	relative viability ([3]; first compound 2 µM)	relative viability ([4]; first compound 0.02 µM)	relative viability ([4]; first compound 0.06325 µM)	relative viability ([4]; first compound 0.2 µM)	relative viability ([4]; first compound 0.6325 µM)	relative viability ([4]; first compound 2 µM)
NCI-H1755	0.927	1.05	0.961	0.917	0.859	0.926	0.951	1.04	0.988	0.928	0.585	0.562	0.66	0.51	0.49	0.774	0.86	0.886	0.872	0.908
HCC-78	0.497	0.378	0.588	0.346	0.275	0.701	0.729	0.91	0.554	0.168	0.384	0.339	0.408	0.394	0.354	0.792	0.72	0.786	0.861	0.619
LOU-NH91	0.415	0.517	0.512	0.562	0.513	0.734	0.786	0.81	0.739	0.585	0.619	0.739	0.634	0.63	0.588	0.845	0.925	0.892	0.883	0.85
NCI-H3122	1.02	1.01	1	1.08	0.975	1.09	1.03	1.04	0.988	0.972	0.401	0.418	0.331	0.38	0.4	0.552	0.679	0.568	0.556	0.619
HCC-827	0.981	0.912	1	1.05	0.973	0.217	0.247	0.209	0.215	0.233	0.403	0.446	0.417	0.38	0.472	0.654	0.528	0.585	0.593	0.662
SK-LU-1	1.37	1.32	1.44	1.29	0.783	0.834	0.977	0.891	1.01	0.693	0.367	0.297	0.381	0.357	0.316	0.477	0.42	0.488	0.521	0.465
NCI-H1975	0.355	0.365	0.401	0.368	0.36	0.707	1.24	0.907	0.84	0.791	0.804	0.917	0.759	0.712	0.708	0.728	0.743	0.805	0.768	0.794
NCI-H1651	0.956	0.637	0.949	0.96	0.893	0.793	0.899	1.05	0.718	0.685	0.827	0.62	0.664	0.608	0.61	0.181	0.154	0.183	0.178	0.188
LCLC-97TM1	0.624	0.515	0.573	0.776	0.125	0.751	1.12	1.73	0.817	0.27	0.201	0.224	0.194	0.211	0.145	0.354	0.372	0.36	0.334	0.281
NCI-H727	0.777	0.828	0.795	0.833	0.475	0.803	0.706	0.918	0.795	0.297	0.676	0.703	0.736	0.569	0.545	0.852	0.579	0.637	0.695	0.538
NCI-H1355	1.02	1.23	1.18	1.2	1.05	0.811	0.929	1.05	0.919	0.766	0.515	0.427	0.556	0.568	0.468	0.656	0.766	0.77	0.699	0.726
HOP-62	0.908	0.819	1.07	0.757	0.707	1.04	0.796	0.944	1.05	0.958	0.352	0.354	0.34	0.328	0.363	0.481	0.389	0.357	0.452	0.424
NCI-H2085	1.03	1.07	1.02	0.824	1.01	0.725	0.635	0.785	0.755	0.713	0.813	0.874	0.848	0.848	0.731	0.813	0.73	0.798	0.821	0.754
